Assays:
[1] = system: plasma Aβ in TgPS/APPsw mice; experiment: Plasma Aβ levels in TgPS/APPsw mice, human Aβ1-40 ELISA; format: in vivo, mouse; conditions: 1.5 mg/kg I.P. every day for three and one half weeks; 2 year old TgPS/APPsw mice
Procedure: Following this treatment, 100 μl of blood were collected from the tail vein of the animals using EDTA (4%) as an anticoagulant. Blood samples were centrifuged at 4000 g for 1 min and the plasma was collected and diluted four times before being assayed for human Aβ1-40 using a commercially available human Aβ1-40 ELISA (Biosource, CA).

[2] = system: human neuronal progenitor cells (HNPC); experiment: Aβ neurotoxicity, LDH release from cells treated with pre-aggregated Aβ1-40; format: cell-based; conditions: 100 nM nilvadipine along with 30 μM AgAβ, three days
Procedure: Neurotoxicity is assessed by measuring the amount of lactic dehydrogenase (LDH) released from cells;
HNPC cells differentiate into neurons readily upon treatment with cyclic AMP. Cyclic AMP (1 mM) (Sigma) was added to the culture medium and the HNPC cells were incubated at 37° C. for 48 hours or more under serum free conditions. […] Neurotoxicity was assessed by measuring the amount of lactic dehydrogenase (LDH; an intracellular enzyme found in all cells) released from the cells.

[3] = system: N9 murine microglial cells; experiment: LPS-induced microglial activation in vitro, TNF-α production by ELISA; format: cell-based, mouse
Procedure: Microglial activation is determined by TNF-α production (pg/ml) measured by ELISA;
N9 murine micoglial cells are well characterized scavenger murine microglial clones derived from embryonic mouse brain. The extent of microglial activation was determined by TNF-α production (pg/ml) measured by ELISA.

[4] = system: human glioblastoma cells transfected with APPsw; experiment: APP processing, Aβ1-40 production in culture medium by ELISA; format: cell-based
Procedure: Production of Aβ1-40 in the culture medium was measured by ELISA.

**Q.** What does the source list for `COC(=O)C1=C(C#N)NC(C)=C(C(=O)OC(C)C)C1c1cccc([N+](=O)[O-])c1` (stereo not drawn) [nilvadipine, isopropyl-3-methyl-2-cyano-1,4-dihydro-6-methyl-4-(m-nitrophenyl)-3,5-pyridine-dicarboxylate]?
**A.** increase in plasma levels of Aβ compared to control animals [1]: 42%; decrease in LDH release [2]: about 44%; TNF-α production ([3]; 50 nM nilvadipine, no LPS, N9 cells): about 40 pg/ml; TNF-α production ([3]; 1 μg/ml LPS plus 50 nM nilvadipine, 24 hours, N9 cells (LPS alone about 820 pg/ml)): about 670 pg/ml; TNF-α production ([3]; LPS plus 500 nM nilvadipine, 24 hours, N9 cells (LPS alone about 820 pg/ml)): about 610 pg/ml; reduction of Aβ1-40 production ([4]; 50 nM, 24 hours): about 9%; reduction of Aβ1-40 production ([4]; 50 nM, 48 hours): about 18%; reduction of Aβ1-40 production ([4]; 250 nM, 24 hours): about 15%; reduction of Aβ1-40 production ([4]; 250 nM, 48 hours): about 5%
